Measurements reported in US20240383953A1, “NOVEL NAN[…] NANOG PRION-LIKE REPEATS” (BAYLOR COLLEGE OF MEDICINE, priority 2021, published 2024).
Residues, ends and D or L forms follow the SMILES beside them.

Assays:
[1] = WR peptide solubility (supernatant to pellet ratio after centrifugation); type: physicochemical; settings: 0.1 and 0.2 mg/mL
Protocol: FIGS. 7A-7H provide data and illustrations related to the fibrillation propensities of NANOG WR-derived peptides. FIG. 7A illustrates NANOG domain organization and the human and mouse NANOG WR-derived peptides used in Example 2. […] Right panels show aggregation kinetics for peptides 1-3 w (top) and 1-4 w (bottom) after 1 min equilibration. Similar results were obtained from two independent experiments. […] Similar results were obtained from two independent experiments. […] Similar results were obtained from two independent experiments. […] Similar results were obtained from two independent preparations. […]
(§1) Amino acids of the synthesized peptides were classified into aromatic, polar, charged and structure breakers (FIG. 7B). Applicant observed a striking degree of correlation between amino acid type distribution, and the peptide's solubilities and aggregation propensities, as monitored by Thioflavin T (ThT, amyloid binding dye) aggregation kinetics assay (FIGS. 7B-7D). Formation of β-sheet fibrils were confirmed by CD spectroscopy and Transmission Electron Microscopy. Hydrophobic/aromatic residues as well as polar residues such as Gln and Asn are commonly found in amyloid or prion-like domains. On the other hand, charged and ‘structure breaker’ residues such as Gly and Pro contribute to the peptide's higher solubility. […] Aggregation kinetics was rapid; 1-4w reached maximal ThT fluorescence within 2-3 min and 1-3w ˜20 min (FIG. 7D).

[2] = WR peptide aggregation kinetics by ThT fluorescence; type: physicochemical
Protocol: FIGS. 7A-7H provide data and illustrations related to the fibrillation propensities of NANOG WR-derived peptides. FIG. 7A illustrates NANOG domain organization and the human and mouse NANOG WR-derived peptides used in Example 2. […] Right panels show aggregation kinetics for peptides 1-3 w (top) and 1-4 w (bottom) after 1 min equilibration. Similar results were obtained from two independent experiments. […] Similar results were obtained from two independent experiments. […] Similar results were obtained from two independent experiments. […] Similar results were obtained from two independent preparations.
as §1, with “domains.” for “domains. On the other hand, charged and ‘structure breaker’ residues such as Gly and Pro contribute to the peptide's higher solubility.”

Row | Compound | peptide solubility [1] | aggregation kinetics [2]
1 | C[C@@H](O)[C@H](NC(=O)[C@H](CO)NC(=O)[C@H](CC(N)=O)NC(=O)[C@H](CC(N)=O)NC(=O)[C@H](Cc1c[nH]c2ccccc12)NC(=O)[C@@H](NC(=O)[C@H](CCC(N)=O)NC(=O)[C@H](CC(N)=O)NC(=O)[C@H](CO)NC(=O)[C@@H](N)Cc1c[nH]c2ccccc12)[C@@H](C)O)C(=O)N[C@@H](CCCCN)C(=O)O [1-2w] (H-WSNQTWNNSTK-OH; N-terminus and C-terminus assumed) | very soluble | 
2 | C[C@@H](O)[C@H](NC(=O)[C@H](CCC(N)=O)NC(=O)[C@H](CC(N)=O)NC(=O)[C@H](CO)NC(=O)[C@H](Cc1c[nH]c2ccccc12)NC(=O)[C@@H](NC(=O)[C@H](CO)NC(=O)[C@H](CC(N)=O)NC(=O)[C@H](CC(N)=O)NC(=O)[C@H](Cc1c[nH]c2ccccc12)NC(=O)[C@@H](NC(=O)[C@H](CCC(N)=O)NC(=O)[C@H](CC(N)=O)NC(=O)[C@H](CO)NC(=O)[C@@H](N)Cc1c[nH]c2ccccc12)[C@@H](C)O)[C@@H](C)O)C(=O)N[C@@H](CCCNC(=N)N)C(=O)N[C@@H](CCCNC(=N)N)C(=O)N[C@@H](CCCNC(=N)N)C(=O)N[C@@H](CCCNC(=N)N)C(=O)N[C@@H](CCCNC(=N)N)C(=O)N[C@@H](CCCNC(=N)N)C(=O)N[C@@H](CCCCN)C(=O)N[C@@H](CCCCN)C(=O)N[C@@H](CS)C(=O)O [1-3wRRK] (H-WSNQTWNNSTWSNQTRRRRRRKKC-OH; N-terminus and C-terminus assumed) | very soluble | 
3 | C[C@@H](O)[C@H](NC(=O)[C@H](CCC(N)=O)NC(=O)[C@H](CC(N)=O)NC(=O)[C@H](CO)NC(=O)[C@H](Cc1c[nH]c2ccccc12)NC(=O)[C@@H](NC(=O)[C@H](CO)NC(=O)[C@H](CC(N)=O)NC(=O)[C@H](CC(N)=O)NC(=O)[C@H](Cc1c[nH]c2ccccc12)NC(=O)[C@@H](NC(=O)[C@H](CCC(N)=O)NC(=O)[C@H](CC(N)=O)NC(=O)[C@H](CO)NC(=O)[C@@H](N)Cc1c[nH]c2ccccc12)[C@@H](C)O)[C@@H](C)O)C(=O)N[C@@H](CCCCN)C(=O)O [1-3w] (H-WSNQTWNNSTWSNQTK-OH; N-terminus and C-terminus assumed) | more insoluble | 
4 | CC[C@H](C)[C@H](NC(=O)[C@H](CC(N)=O)NC(=O)[C@H](CCC(N)=O)NC(=O)[C@@H](NC(=O)[C@H](CCC(N)=O)NC(=O)[C@H](CC(N)=O)NC(=O)[C@H](CO)NC(=O)[C@H](Cc1c[nH]c2ccccc12)NC(=O)[C@@H](NC(=O)[C@H](CO)NC(=O)[C@H](CC(N)=O)NC(=O)[C@H](CC(N)=O)NC(=O)[C@H](Cc1c[nH]c2ccccc12)NC(=O)[C@@H](NC(=O)[C@H](CCC(N)=O)NC(=O)[C@H](CC(N)=O)NC(=O)[C@H](CO)NC(=O)[C@@H](N)Cc1c[nH]c2ccccc12)[C@@H](C)O)[C@@H](C)O)[C@@H](C)O)C(=O)N[C@@H](CCC(N)=O)C(=O)N[C@@H](CO)C(=O)N[C@@H](Cc1c[nH]c2ccccc12)C(=O)N[C@@H](CO)C(=O)N[C@@H](CC(N)=O)C(=O)N[C@@H](Cc1c[nH]cn1)C(=O)N[C@@H](CO)C(=O)N[C@@H](CCCCN)C(=O)O [1-4w] (H-WSNQTWNNSTWSNQTQNIQSWSNHSK-OH; N-terminus and C-terminus assumed) | more insoluble | 
5 | CC[C@H](C)[C@H](NC(=O)[C@H](CC(N)=O)NC(=O)[C@H](CCC(N)=O)NC(=O)[C@@H](NC(=O)[C@H](CCC(N)=O)NC(=O)[C@H](CC(N)=O)NC(=O)[C@H](CO)NC(=O)[C@H](C)NC(=O)[C@@H](NC(=O)[C@H](CO)NC(=O)[C@H](CC(N)=O)NC(=O)[C@H](CC(N)=O)NC(=O)[C@H](C)NC(=O)[C@@H](NC(=O)[C@H](CCC(N)=O)NC(=O)[C@H](CC(N)=O)NC(=O)[C@H](CO)NC(=O)[C@H](C)N)[C@@H](C)O)[C@@H](C)O)[C@@H](C)O)C(=O)N[C@@H](CCC(N)=O)C(=O)N[C@@H](CO)C(=O)N[C@@H](Cc1c[nH]c2ccccc12)C(=O)N[C@@H](CO)C(=O)N[C@@H](CC(N)=O)C(=O)N[C@@H](Cc1c[nH]cn1)C(=O)N[C@@H](CO)C(=O)N[C@@H](CCCCN)C(=O)O [1-4wa] (H-ASNQTANNSTASNQTQNIQSWSNHSK-OH; N-terminus and C-terminus assumed) | increased solubility | 
6 | C[C@@H](O)[C@H](NC(=O)[C@H](CCC(N)=O)NC(=O)[C@H](CC(N)=O)NC(=O)[C@H](CO)NC(=O)[C@@H](N)Cc1c[nH]c2ccccc12)C(=O)N[C@@H](CCCCN)C(=O)O [1w, WSNQTK] (H-WSNQTK-OH; N-terminus and C-terminus assumed) | very soluble | 
7 | C[C@@H](O)[C@H](NC(=O)[C@H](CCC(N)=O)NC(=O)[C@H](CC(N)=O)NC(=O)[C@H](CC(N)=O)NC(=O)[C@H](Cc1c[nH]c2ccccc12)NC(=O)[C@@H](NC(=O)[C@@H]1CCCN1C(=O)[C@H](CC(N)=O)NC(=O)[C@@H](NC(=O)[C@H](Cc1c[nH]c2ccccc12)NC(=O)[C@@H](NC(=O)[C@H](CCC(N)=O)NC(=O)[C@H](CO)NC(=O)[C@H](CO)NC(=O)[C@H](Cc1c[nH]c2ccccc12)NC(=O)[C@@H](NC(=O)[C@@H]1CCCN1C(=O)[C@H](CC(N)=O)NC(=O)[C@@H](NC(=O)[C@H](Cc1c[nH]c2ccccc12)NC(=O)[C@@H](NC(=O)[C@H](CCC(N)=O)NC(=O)[C@H](CO)NC(=O)CNC(=O)[C@@H](N)Cc1c[nH]c2ccccc12)[C@@H](C)O)[C@@H](C)O)[C@@H](C)O)[C@@H](C)O)[C@@H](C)O)[C@@H](C)O)C(=O)N[C@@H](CCCCN)C(=O)O [m1-5w] (H-WGSQTWTNPTWSSQTWTNPTWNNQTK-OH; N-terminus and C-terminus assumed) | relatively higher solubility | 
8 | C[C@H](NC(=O)[C@H](CCC(N)=O)NC(=O)[C@H](CO)NC(=O)[C@H](CO)NC(=O)[C@H](Cc1c[nH]c2ccccc12)NC(=O)[C@@H](NC(=O)[C@@H]1CCCN1C(=O)[C@H](CC(N)=O)NC(=O)[C@@H](NC(=O)[C@@H](N)Cc1c[nH]c2ccccc12)[C@@H](C)O)[C@@H](C)O)C(=O)N[C@@H](Cc1c[nH]c2ccccc12)C(=O)N[C@H](C(=O)N[C@@H](C)C(=O)N[C@@H](CCC(N)=O)C(=O)N[C@@H](CO)C(=O)N[C@@H](Cc1c[nH]c2ccccc12)C(=O)N[C@@H](CC(N)=O)C(=O)NCC(=O)N[C@@H](CCC(N)=O)C(=O)N1CCC[C@H]1C(=O)N[C@@H](Cc1c[nH]c2ccccc12)C(=O)N[C@@H](CC(N)=O)C(=O)N[C@@H](C)C(=O)N[C@@H](C)C(=O)N1CCC[C@H]1C(=O)N[C@@H](CCCCN)C(=O)O)[C@@H](C)O [m6-10w] (H-WTNPTWSSQAWTAQSWNGQPWNAAPK-OH; N-terminus and C-terminus assumed) | relatively higher solubility | 
9 | WCTQSWNNQAWNSPFYNCGEESK [6-8w, human C-terminal WR repeats] | relatively higher solubility | slower aggregation kinetics
10 | WNTQTWCTQSWNNQAWNSPFYNCGEESK [5-8w, human C-terminal WR repeats] | relatively higher solubility | slower aggregation kinetics
